According to a melting point compilation (Tetko et al.; mined from patent text by program, amines drawn as free bases though some values may be those of a salt):

| melting point | SMILES |
| --- | --- |
| 80 to 85 °C | CCOC(=O)N(c1ccc(Cl)cc1)c1ccccc1N=NC(NC(=O)CCl)(C(=O)OCC)C(=O)OCC |
| 90.5 to 92 °C | Cc1ccc(C)c(OCc2ccccc2C(=O)c2ccon2)c1 |
| 138 to 140 °C | CC(=O)c1cc(Cl)c(N=C=O)c(Cl)c1 |
| 121 to 126 °C | COCC(=O)C(=NNc1ccccc1F)C(=O)OC |
| 105 to 106 °C | CCOC(=O)Cc1ccccc1NC(=O)c1sc2ccc(OC)cc2c1OC(C)C |
| > 250 °C | CC(C)Cc1c2c(nn1C)c(N)nc1ncccc12 |
| 250 °C | CN1C(=O)C(c2ccccc2)(C23CC4CC(CC(C4)C2)C3)N=C1N (stereo not drawn) |
| 154 °C | COc1ccc(-c2ccc3ccc(OC)cc3c2)cc1 |
| 87 to 88 °C | CCc1cc2c(-c3ccccc3Cl)c(N)cnc2s1 |
| 230 °C | CCOC(=O)c1c(Cc2ccccc2)c2ccccc2[nH]c1=O |
| 155 to 157 °C | CCOC(=O)C1=C(CSC(C)=O)NC(C)=C(C#N)C1c1cccc([N+](=O)[O-])c1 (stereo not drawn) |
| 28 to 29 °C | CCCCCCCCCCCCCC(=O)O[C@H](CCCCCCCCCCC)CC(=O)O |
| 117 to 118 °C | O=C(O)CCCCCCCC(=O)Nc1cc(Cl)ccc1O |
| 244 to 246 °C | COc1cc(-c2cnc3[nH]cc(C(=O)C4(C)CCCC4)c3n2)cc(OC)c1OC |
| 142 to 144 °C | COc1ccc(C2CNC(=O)N2C)cc1OC1CC2CCC1C2 (stereo not drawn) |
| 150 to 151 °C | COc1cc(Nc2nccc(-c3ccc(N4CCNC(CCO)C4)nc3)n2)cc(OC)c1OC (stereo not drawn) |
| 134 to 135 °C | Cc1cc(C)nc(N(C=O)c2ccccc2)n1 |
| 299 to 302 °C | O=C1CCC(c2ccc3c(c2)NC(=O)CS3)=NN1 |
| 65 to 67 °C | CCOc1ccccc1-c1cc(NC(=O)C2CCN(CC)CC2)ncn1 |
| 115 to 117 °C | CCCCSc1nc(N)c(C#N)s1 |
| 193 to 197 °C | O=C1NCCN(N=Cc2ccco2)C1=O |
| 161 to 165 °C | COC(=O)c1ccccc1Cn1ccc(OCc2ccc(F)cc2)c(Br)c1=O |
| 75.5 to 76.5 °C | CCc1ccc(-c2nc(Cl)c3ccccc3n2)cc1 |
| 138 to 140 °C | CCC(CC)N1CCNc2c1cc(C)nc2Oc1c(C)cc(C)cc1C |
| 203 to 204 °C | CC(=O)c1ccc(C(=O)Nc2ccc(-n3nc(C(F)(F)F)cc3C(F)(F)F)cc2)cc1 |

| melting point | SMILES |
| --- | --- |
| 61 to 62 °C | Cc1ccc(CN2CCN(C(=O)OC(C)(C)C)CC2)cc1 |
| 198 to 200 °C | CC1Sc2c(C(=O)O)c(=O)c3cc(F)c(N4CCNC(=O)C4)cc3n21 (stereo not drawn) |
| 294 to 298 °C | CN(C)c1ccc(C=C2SC(N3CCCC3)=NC2=O)cc1-c1cc(F)c(O)c(C23CC4CC(CC(C4)C2)C3)c1 |
| 80 to 81 °C | CCC(=O)Cc1cc(OC)ccc1NC(=O)OC(C)(C)C |
| 206 to 209 °C | N=C(N)Nc1nc2ccc(C(F)(F)F)cc2[nH]1 |
| 181 to 183 °C | O=C1Cc2ccccc2N1Nc1ccncc1F |
| 230 °C | O=[N+]([O-])c1ccc(Cl)c(C=Cc2nc3ccccc3o2)c1 |
| 146 to 148 °C | Cn1c(=S)ccn(C2OC(CO)C(O)C2O)c1=O (stereo not drawn) |
| 127 to 130 °C | O=C1O[C@@H](CO)CN1c1ccc(C2=CCOCC2)c(F)c1 |
| 245 to 247 °C | O=C(Nc1ccc2[nH]c(=O)sc2c1)C(=O)N1CCC(Oc2ccc(Cl)cc2)CC1 |
| 158 to 160 °C | CC(C)(C)OC(=O)NC1C=CCC2C(=O)NC(=O)C12 (stereo not drawn) |
| 102 to 104 °C | O=C(NCc1cccnc1)C(F)(F)F |
| 79 to 80 °C | CC(O)(C(=O)Nc1cc(S(=O)(=O)c2ccccc2)ccc1Cl)C(F)(F)F (stereo not drawn) |
| 164 °C | CN(C)CC(=O)Nc1cccc2nc(NC3CCc4cc(F)ccc43)ccc12 (racemic) |
| 196 to 199 °C | O=C1N(Cc2ccccn2)c2cccc(-c3ccc(Oc4ccccc4)cc3)c2C12COc1cc3c(cc12)OCCO3 (stereo not drawn) |
| 78 to 80 °C | CCCC1(CC(=O)O)OC=CC2=C1NC1=C3CCCCC3CCC21 (stereo not drawn) |
| 198 to 199 °C | CN(C)c1ccc(CN/C=C2\C(=O)NC(=O)c3ccc(I)cc32)cc1O |
| 192 to 193 °C | CC(C)(C)NC(=O)[C@@H]1C[C@@H](O)CN1C(=O)OC(C)(C)C |
| 109 to 110 °C | CSC(=S)OC(C(=O)O)c1ccccc1 (stereo not drawn) |
| 117 °C | NCC(O)C1=CC2(CCCCC2)c2ccccc21 (stereo not drawn) |
| 196 to 197 °C | CCNC(=O)CCCNC(=O)CCCNC(=O)CCCNC(=O)CCCNC(=O)OC(C)(C)C |
| 164 to 166 °C | COc1cc(-c2nc(N(C)CCO)c3c(C)c(C#N)sc3n2)cc(OC)c1OC |
| 231 to 232 °C | O=C(O)c1ccccc1Sc1ccc(Cl)c(F)c1 |
| 147 to 150 °C | COC1(C[N+](=O)[O-])OC(=O)c2cc(C)c(C)cc21 (stereo not drawn) |
| 135 to 138 °C | O=C(Nc1ccc2ccccc2n1)c1ccc(COc2ccc3c(c2)CCC(CCN2CCCCC2)C3)cc1 (stereo not drawn) |

| melting point | SMILES |
| --- | --- |
| 72 to 75 °C | CN(Cc1cc2c(=O)c(C(=O)NCc3ccc(Cl)cc3)cn(C)c2o1)CC(O)c1ccc(O)cc1 (stereo not drawn) |
| 138 to 139 °C | CNc1ccc(C2OC(C)(C)N=C2c2ccccc2)cc1 (stereo not drawn) |
| 104 °C | ClCc1cccc2c(-c3ccccc3)nccc12 |
| 102 to 104 °C | O=CC(CC(=O)O)NC(=O)[C@@H]1CCCN1C(=O)c1nc(CCc2ccccc2)c[nH]1 (stereo partly drawn) |
| 90 to 92 °C | CC(C)(C)c1ccc(OCC(O)CN2CCCC3(CSC4=C(O3)c3ccccc3C(=O)C4=O)C2)cc1 (stereo not drawn) |
| 153 to 155 °C | CN1Cc2ccccc2C(=O)c2c1nc1ccc(Br)cc1c2Cl |
| 225 to 230 °C | CC(=O)N1CCc2c(c3ccc(-n4ccc(OCc5ccccc5)cc4=O)cc3n2C)C1 |
| 82 to 83 °C | CC(C)Oc1c(C(N)=O)oc2ccccc12 |
| 89 °C | CC(=NOCCO)c1ccc2ccccc2n1 |
| 141 to 143 °C | Cc1cc(Cl)ccc1N1C(=O)CON(C)C1=S |
| 115 to 117 °C | CCOC(=O)C(=CNc1cccc(C2=NC(C)(C)Cc3cc(OC)c4c(c32)CC(C)(C)O4)c1)C(=O)OCC |
| 164 to 167 °C | COc1ccc(S(=O)(=O)N(CCCO)c2ccccc2/C=C/c2ccncc2)cc1 |
| 285 to 286 °C | CC(C)(C)c1cc(S)n2ncnc2n1 |
| 80.5 to 81.5 °C | COC(=O)Cc1c(-c2ccccc2)nn(-c2ccccc2)c1-c1ccccc1 |
| 98 to 100 °C | CC(C)C1(C)C(=O)N=C2c3ccccc3C(=O)N21 (stereo not drawn) |
| 170 to 172 °C | O=C(O)Cc1nn(C/C=C/c2cccc(C(F)(F)F)c2F)c(=O)c2ccccc12 |
| 167 to 169 °C | COc1ccc(C(=O)Nc2ccccc2)cc1NCc1ccccc1C |
| 55 to 56 °C | CN(CCCc1ccccc1)[C@H]1CC[C@H](c2ccc([N+](=O)[O-])cc2)CC1 |
| 135 to 137 °C | CC(=O)c1ccc(OCCCN2CCC(c3nsc4cc(F)ccc34)CC2)c(O)c1 |
| 182 °C | CS(=O)(=O)c1ccc(-c2nn(Cc3ccccc3)c(=S)cc2-c2ccc(F)cc2)cc1 |
| 150 to 153 °C | CC(=O)N(Cc1ccccc1)c1c(F)c(F)cc(F)c1C(=O)O |
| 143 to 145 °C | CC(=O)Oc1ccc(C2COc3cc(OC(C)=O)cc(C)c3C2=O)cc1 (stereo not drawn) |
| 114 to 116 °C | C[C@H]1C(S(=O)(=O)c2ccccc2)C=C(Sc2ccccc2)CC[C@H]1O[Si](C)(C)C (stereo partly drawn) |
| 256 to 259 °C | COc1ccc(-c2nnc3c4ccccc4c(Nc4cccc(-c5nnn(C)n5)c4)nn23)cc1 |
| 39 to 41 °C | CCCCCOC(=O)Cc1sc(F)c(N=c2sc(=O)n3n2CCCC3)c1Cl |

| melting point | SMILES |
| --- | --- |
| 195 to 196 °C | CN(C)CCNC(=O)Cn1c(-c2ccc(Cl)cc2)nc2cccnc21 |
| 138 to 142 °C | C=CCSC1(C(F)(F)F)CN(CC)C(=O)Nc2ccc(Cl)cc21 (stereo not drawn) |
| 174 to 175 °C | O=[N+]([O-])c1cnc2ccc(Cl)cc2c1Nc1ccccc1 |
| 250 °C | COc1cccc2c1C(C)N1CC(=O)NC1=N2 (stereo not drawn) |
| 174 to 175 °C | O=c1nc(N2CCCc3ccccc32)sc2ncccc12 |
| 149 to 151 °C | CC(C)OCCCNC(=O)CN1C(=O)C2(COc3cc4c(cc32)CCO4)c2ccccc21 (stereo not drawn) |
| 146 to 148 °C | NC(=NO)c1ccno1 |
| 144 to 146 °C | O=C(NCCO)c1ccc(NS(=O)(=O)c2ccc(F)cc2)cn1 |
| 122 to 125 °C | O=C1c2ccccc2C(=O)N1CCc1cccc(F)c1 |
| 144 to 145 °C | O=C(Nc1cn(C2CCCCO2)nc1C(=O)NCCC(F)(F)F)c1ccccn1 (stereo not drawn) |
| 164 to 166 °C | CCOC(=O)c1c(C)ccnc1Sc1nc(C)c(CC(=O)O)s1 |
| 216 to 219 °C | CCOC(=O)c1cn(C2CC2)c2cc(-n3cccc3)c(F)cc2c1=O |
| 137 to 139 °C | CC(C)(C)OC(=O)NC1CCc2cc3ccccc3n2C1 (stereo not drawn) |
| 79 to 80 °C | NNc1ccc(C(F)(F)F)c(Cl)c1Cl |
| 92 to 93 °C | CCC1CC(C)(C)Oc2c1cc(C(C)=O)c(O)c2C (stereo not drawn) |
| 102 °C | O=C=Nc1cc(NS(=O)(=O)CCl)c(Cl)cc1F |
| 49 °C | CCCCc1ccc(-c2ccc(CCc3ccc(Cl)cc3)cc2)c(F)c1 |
| 38 to 40 °C | CC(C)C[C@H](NC(=O)N1CCCCCC1)C(=O)N[C@H](Cc1ccc(OCc2ccccc2)cc1)C(=O)OC(C)(C)C |
| 123 to 124 °C | COC(=O)c1ccc(NC(C)=O)c([N+](=O)[O-])c1 |
| 186 °C | Cc1ccc(S(=O)(=O)N2CCCC(S(=O)(=O)c3ccc(F)cc3)C2)cc1 (stereo not drawn) |
| 68 to 70 °C | CCc1ncc(CCCOc2c(C)cc(-c3noc(C(F)F)n3)cc2C)s1 |
| 101 to 102 °C | CCCOc1ccc(COCCO)cc1-c1nc2c(CCC)nn(C)c2c(=O)[nH]1 |
| 181 to 183 °C | CON=Cc1nc2c(N)nc3ccccc3c2n1CC(C)C |
| 120 to 122 °C | O=C(COc1ncccn1)NC1CCN(Cc2ccc(Cl)c(Cl)c2)CC1 |
| 65 °C | N=C(c1cc(Cl)ccc1N)C1CCCCC1 |

| SMILES | melting point |
| --- | --- |
| O=C(O)c1cc2cc(F)ccc2n1Cc1ccncc1 | 282 to 283 °C |
| O=C1Nc2cc(F)ccc2N2CCN(Cc3ccncc3)CC12 (stereo not drawn) | 269 to 272 °C |
| CCc1cc2c(s1)-n1c(nnc1CNC(=O)Nc1cccc(C)c1)CN=C2c1ccccc1Cl | 260 to 262 °C |
